Test results reported in patent EP0238178B1, “Novel derivatives of erythromycylamine” (ELI LILLY AND COMPANY, priority 1986, dated 1987).
Where two headings read alike, the source gives them in different places.

Key:
Staphylococcus aureus = assay: Experimental bacterial infection in mice, ED50; format: in vivo; details: two doses, dose protecting 50% of animals; for ED50: Staphylococcus aureus
Experimental: (§1) The new derivatives of this invention have also shown in vivo antimicrobial activity against experimental bacterial infections. When two doses of test compound were administered to mice in experimental infections, the activity observed was measured as an EDso value [effective dose in mg/kg to protect 50% of the test animals: see Warren Wick, et al., J. Bacteriol. 81, 233-235 (1961)].

Streptococcus pyogenes = assay: Experimental bacterial infection in mice, ED50; format: in vivo; details: two doses, dose protecting 50% of animals; for ED50: Streptococcus pyogenes
Experimental: as §1

Streptococcus pneumoniae = assay: Experimental bacterial infection in mice, ED50; format: in vivo; details: two doses, dose protecting 50% of animals; for ED50: Streptococcus pneumoniae
Experimental: as §1

[1] = test system: Streptococcus pyogenes C203; assay: MIC, standard agar-dilution assay; format: cell-based
[2] = test system: Streptococcus sp. group D 2041; assay: MIC, standard agar-dilution assay; format: cell-based
Escherichia coli EC14 = assay: MIC, standard agar-dilution assay; format: cell-based
[3] = test system: Haemophilus influenzae C.L.; assay: MIC, standard agar-dilution assay; format: cell-based; details: Ampicillin-sensitive strain
[4] = test system: Staphylococcus epidermidis 222; assay: MIC, standard agar-dilution assay; format: cell-based
[5] = test system: Streptococcus sp. group D X66; assay: MIC, standard agar-dilution assay; format: cell-based; details: Streptococcus sp. group D X66
[6] = test system: Staphylococcus aureus S13E; assay: MIC, standard agar-dilution assay; format: cell-based
[7] = test system: Staphylococcus aureus X1.1; assay: MIC, standard agar-dilution assay; format: cell-based
[8] = test system: Haemophilus influenzae 76; assay: MIC, standard agar-dilution assay; format: cell-based; details: Haemophilus influenzae 76, Ampicillin-resistant strain
[9] = test system: Streptococcus pneumoniae Park I; assay: MIC, standard agar-dilution assay; format: cell-based
[10] = sc, subcutaneous, read-out: Subcutaneous ED50

Molecule	ED50 (Staphylococcus aureus; po, read-out: Oral ED50) [mg/kg]	ED50 (Streptococcus pyogenes; po, read-out: Oral ED50) [mg/kg]	ED50 (Streptococcus pneumoniae; po, read-out: Oral ED50) [mg/kg]	further results
CCOC(=O)C1CC1CN[C@@H]1[C@H](C)[C@@H](O)[C@](C)(O)[C@@H](CC)OC(=O)[C@H](C)[C@@H](O[C@H]2C[C@@](C)(OC)[C@@H](O)[C@H](C)O2)[C@H](C)[C@@H](O[C@@H]2O[C@H](C)C[C@H](N(C)C)[C@H]2O)[C@](C)(O)C[C@H]1C (stereo partly shown) [Compound 27, 9-Deoxo-9-[[[2-(ethoxycarbonyl)cyclopropyl]methyl]amino]erythromycin]	50	27.1	30.4	–
CC[C@H]1OC(=O)[C@H](C)[C@@H](O[C@H]2C[C@@](C)(OC)[C@@H](O)[C@H](C)O2)[C@H](C)[C@@H](O[C@@H]2O[C@H](C)C[C@H](N(C)C)[C@H]2O)[C@](C)(O)C[C@@H](C)[C@H](NCCCC#N)[C@H](C)[C@@H](O)[C@]1(C)O [Compound 29, 9-Deoxo-9-[(3-cyanopropyl)amino]erythromycin]	36.1	21.1	28.7	–
CC[C@H]1OC(=O)[C@H](C)[C@@H](O[C@H]2C[C@@](C)(OC)[C@@H](O)[C@H](C)O2)[C@H](C)[C@@H](O[C@@H]2O[C@H](C)C[C@H](N(C)C)[C@H]2O)[C@](C)(O)C[C@@H](C)[C@H](NCCC2=C(C)CCCC2(C)C)[C@H](C)[C@@H](O)[C@]1(C)O [Compound 30, 9-Deoxo-9-[[2-(2,6,6-trimethyl-1-cyclohexen-1-yl)ethyl]amino]erythromycin]	> 50	> 50	> 50	–
CC[C@H]1OC(=O)[C@H](C)[C@@H](O[C@H]2C[C@@](C)(OC)[C@@H](O)[C@H](C)O2)[C@H](C)[C@@H](O[C@@H]2O[C@H](C)C[C@H](N(C)C)[C@H]2O)[C@](C)(O)C[C@@H](C)[C@H](NCCOC)[C@H](C)[C@@H](O)[C@]1(C)O [Compound 31, 9-Deoxo-9-[(2-Methoxyethyl)amino]erythromycin]	35.2	16.3	18.7	ED50 (Staphylococcus aureus; [10]): 2.5 mg/kg; ED50 (Streptococcus pyogenes; [10]): 2.1 mg/kg; ED50 (Streptococcus pneumoniae; [10]): 3.3 mg/kg
CCCN[C@@H]1[C@H](C)[C@@H](O)[C@@H](C)[C@@H](CC)OC(=O)[C@H](C)[C@@H](O[C@H]2C[C@@](C)(OC)[C@@H](O)[C@H](C)O2)[C@H](C)[C@@H](O[C@@H]2O[C@H](C)C[C@H](N(C)C)[C@H]2O)[C@](C)(O)C[C@H]1C [Compound 38]	41	20.6	50	–
CCCCCCCCCCN[C@@H]1[C@H](C)[C@@H](O)[C@@H](C)[C@@H](CC)OC(=O)[C@H](C)[C@@H](O[C@H]2C[C@@](C)(OC)[C@@H](O)[C@H](C)O2)[C@H](C)[C@@H](O[C@@H]2O[C@H](C)C[C@H](N(C)C)[C@H]2O)[C@](C)(O)C[C@H]1C [Compound 41]	> 50	> 50	> 50	–
CC[C@H]1OC(=O)[C@H](C)[C@@H](O[C@H]2C[C@@](C)(OC)[C@@H](O)[C@H](C)O2)[C@H](C)[C@@H](O[C@@H]2O[C@H](C)C[C@H](N(C)C)[C@H]2O)[C@](C)(O)C[C@@H](C)[C@H](NCCOCCOC)[C@H](C)[C@@H](O)[C@H]1C [Compound 49]	> 50	40.9	> 56	–
Endo- and Exo-9-Deoxo-9-[(bicyclo[2.2.1]hept-2-en-5-yl-methyl)amino]erythromycin [Compound 19]	–	–	–	MIC [1]: 0.25 µg/mL; MIC [2]: 8 µg/mL; MIC (Escherichia coli EC14): 64 µg/mL; MIC [3]: 8 µg/mL; MIC [4]: 1 µg/mL; MIC [5]: 1 µg/mL; Oral ED50 (Staphylococcus aureus; oral): >50 mg/kg; Oral ED50 (Streptococcus pyogenes; oral): 16.6 mg/kg; Oral ED50 (Streptococcus pneumoniae; oral): 25.0 mg/kg; MIC [6]: 2 µg/mL; MIC [7]: 2 µg/mL; MIC [8]: 8 µg/mL; MIC [9]: 0.015 µg/mL
